Measured values reported in patent US20260364076A1 (Amgen Inc., priority 2022, published 2026).
Where two headings read alike, the source gives them in different places.

Legend:
[1] = Drug-drug interaction study with itraconazole (CYP3A4 inhibitor): sotorasib plasma PK in healthy subjects; settings: human, in vivo, po, 360 mg; for AUC(0-inf): AUCinf (GLSM); for AUC(0-t): AUClast (GLSM)
Description: (§1) Safety and tolerability monitoring were performed throughout the study.

[2] = Drug-drug interaction study with rifampin (CYP3A4 inducer): sotorasib plasma PK in healthy subjects; type: in vivo, human; settings: for Cmax / AUC(0-inf) / AUC(0-t): human, plasma, 960 mg; for AUC(0-inf): read-out: AUCinf (GLSM); for AUC(0-t): read-out: AUClast (GLSM)
Description: as §1

[3] = Single-dose PK study in subjects with moderate or severe hepatic impairment compared to healthy subjects; type: in vivo, human
Description: (§2) This Example describes an open-label single-dose study of sotorasib that was conducted in healthy subjects and subjects with moderate or severe hepatic impairment (see, Inclusion/Exclusion criteria):
(§3) The primary objective of the study was to evaluate the pharmacokinetics (PK) of a single oral dose of sotorasib administered in subjects with moderate or severe hepatic impairment compared to subjects with normal hepatic function. The secondary objective of the study was to evaluate the safety and tolerability of sotorasib administered in subjects with moderate or severe hepatic impairment compared to subjects with normal hepatic function.
(§4) Subjects meeting eligibility requirements were assigned to 1 of 3 groups: Group 1—Normal function (No impairment, n=6-12); Group 2—Moderate impairment (Child-Pugh Class B, n=6-8); Group 3—Severe impairment (Child-Pugh Class C, n=6-8). The classification is based on Child-Pugh scores as per Figg et al. (1995).
The plasma PK parameters of sotorasib will be calculated using standard noncompartmental methods.
The data from hepatically impaired subjects (Group 2 and 3; tests) and control subjects (normal hepatic function [Group 1]; reference) will be included in the analysis. Geometric mean ratios (Test/Reference) for Cmax and AUC values and associated 90% confidence intervals will be estimated.
Additional parameters may be calculated, and sotorasib metabolites may be analyzed. PK parameters for the metabolites, if calculated, will not be subject to inferential statistical analysis. Specific details will be presented in the Statistical Analysis Plan for this study.

[4] = Safety and tolerability in single-dose hepatic impairment study; type: in vivo, human
Description: as §2, §3, §4

[5] = test system: KRAS^G12C; settings: cited from earlier work
[6] = test system: extracellular signal-regulated kinase (ERK); settings: preclinical studies; cited from earlier work
[7] = test system: KRAS p.G12C tumors; settings: mice bearing KRAS p.G12C tumors; cited from earlier work
[8] = test system: cells and tumors harboring KRAS G12C mutations; settings: cited from earlier work
[9] = test system: cancer with the KRAS G12C mutation; settings: cited from earlier work
[10] = test system: CYP3A; settings: hepatic; cited from earlier work
[11] = in vivo; cited from earlier work
[12] = 360 mg sotorasib + 200 mg itraconazole (Test), day 6, healthy subjects
[13] = 360 mg sotorasib alone (Reference), day 1, single oral dose, healthy subjects
[14] = 960 mg sotorasib + 600 mg rifampin on day 3 (Test), single-dose rifampin
[15] = 960 mg sotorasib + 600 mg rifampin on day 18 (Test), multiple daily dosing of rifampin
[16] = 960 mg sotorasib on day 1 (Reference), healthy subjects

C=CC(=O)N1CCN(c2nc(=O)n(-c3c(C)ccnc3C(C)C)c3nc(-c4c(O)cccc4F)c(F)cc23)[C@@H](C)C1 (atropisomer, axis not shown; (M)) [Sotorasib, 6-fluoro-7-(2-fluoro-6-hydroxyphenyl)-(1M)-1-[4-methyl-2-(propan-2-yl)pyridin-3-yl]-4-[(2S)-2-methyl-4-(prop-2-enoyl)piperazin-1-yl]pyrido[2,3-d]pyrimidin-2(1H)-one]
Cmax [1]: 6130 ng/mL | Tmax [1]: 0.51 h | AUC(0-inf) [1, 12]: 31000 ng·h/mL | AUC(0-inf) [1, 13]: 24600 ng·h/mL | AUC(0-t) [1, 12]: 30700 ng·h/mL | AUC(0-t) [1, 13]: 22700 ng·h/mL | Geometric mean exposures, based on AUC and Cmax ([2]; following coadministration with rifampin on days 3 and 18): lower following coadministration with rifampin on days 3 and 18 | Cmax [2, 14]: 5340 ng/mL | AUC(0-inf) [2, 14]: 19600 ng·h/mL | AUC(0-t) [2, 14]: 19400 ng·h/mL | Cmax [2, 15]: 4110 ng/mL | AUC(0-inf) [2, 15]: 12400 ng·h/mL | AUC(0-t) [2, 15]: 12300 ng·h/mL | AUC(0-inf) [2, 16]: 25600 ng·h/mL | AUC(0-t) [2, 16]: 25400 ng·h/mL | half-life ([3]; human, in vivo, po, 960 mg, read-out: half-life (t1/2), arithmetic mean): 6.42 to 8.18 h | Tmax ([3]; human, in vivo, po, 960 mg, read-out: median tmax): 1 to 1.47 h | PK and safety profile ([3]; moderate or severe hepatic impairment vs healthy subjects): clinically sufficiently similar to the PK and safety profile of healthy subjects | half-life (t1/2), trend across hepatic function groups ([3]; normal, moderate or severe hepatic impairment, 960 mg sotorasib): no apparent trend related to hepatic impairment | findings in clinical laboratory evaluations, physical examinations, ECGs, and vital signs ([4]; 960 mg sotorasib single dose): no clinically meaningful findings | serious adverse events or treatment-emergent adverse events leading to discontinuation ([4]; 960 mg sotorasib single dose): no serious adverse events or treatment-emergent adverse events leading to discontinuation | adverse event severity ([4]; all adverse events, 960 mg sotorasib): mild in severity | resolution of adverse events ([4]; by end of study): All the adverse events resolved by the end of study | treatment-emergent adverse events considered related to sotorasib ([4]; number of events, 20 subjects, Investigator assessment): 5 | treatment-emergent adverse events ([4]; number of events, 20 subjects, single dose 960 mg sotorasib): 9 | safety and tolerability ([4]; single doses, normal hepatic function, moderate or severe hepatic impairment): safe and well-tolerated | inhibition of KRAS^G12C [5]: specifically and irreversibly inhibits | inhibition of phosphorylation of ERK [6]: inhibited nearly all detectable phosphorylation | tumor regression [7]: durable complete tumor regression | growth and regression of cells and tumors [8]: inhibition of growth and regression of cells and tumors harboring KRAS G12C mutations | tumor response ([9]; NSCLC, colorectal, pancreatic, appendiceal, endometrial, unknown primary, ampullary, gastric, small bowel, sinonasal, bile duct cancer, or melanoma): stable disease (SD) or partial response (PR) | disease control rate (95% CI) ([9]; colorectal cancer, 42 patients): 73.8% | disease control rate (95% CI) ([9]; non-small cell lung cancer, 59 patients): 88.1% | disease control rate (95% CI) ([9]; other tumor types, 28 patients): 75.0% | metabolizing enzyme [10]: mainly metabolized by the hepatic enzymes CYP3A | route of elimination [11]: mainly eliminated via the fecal route
